These results are taken from ChEMBL document CHEMBL1154960, “Development of improved inhibitors of wall teichoic acid biosynthesis with potent activity against Staphylococcus aureus” (Bioorg Med Chem Lett, 2010).

The source made the active and inactive calls. How the calls were made is not given here.

The test concerns Staphylococcus aureus. Description: Antibacterial activity against tarO deficient Staphylococcus aureus RN4220 assessed as growth inhibition at 100 uM after 12 hrs by optical density plate reader method. It is filed as functional.
Take `CCOC(=O)C1CCCN(c2nc3c(S(=O)(=O)c4ccc(CC)cc4)nnn3c3ccc(Cl)cc23)C1` (stereo unspecified): the outcome was inactive. Under `O=S(=O)(c1ccc(Cl)cc1)c1nnn2c1nc(Cl)c1ccccc12` stands “inactive”; under `Cc1ccc(S(=O)(=O)c2nnn3c2nc(N2CCN(c4ccccc4F)CC2)c2ccccc23)cc1C`, “inactive”. The value for `Cc1ccc(S(=O)(=O)c2nnn3c2nc(N2CCCC2)c2ccccc23)cc1` was “inactive”; that for `COc1cc(Nc2nc3c(S(=O)(=O)c4ccccc4)nnn3c3ccc(Cl)cc23)cc(OC)c1` was “inactive”. Under `CCc1ccc(S(=O)(=O)c2nnn3c2nc(N2CCC(C)CC2)c2cc(Cl)ccc23)cc1` stands “inactive”. As to `Cc1ccc(S(=O)(=O)c2nnn3c2nc(N2CCC(C(N)=O)CC2)c2cc(Cl)ccc23)cc1C`, the result was inactive. As for `COc1ccccc1Nc1nc2c(S(=O)(=O)c3c(C)cc(C)cc3C)nnn2c2ccccc12`, the outcome was inactive. Under `CCOC(=O)C1CCN(c2nc3c(S(=O)(=O)c4ccc(C)c(C)c4)nnn3c3ccc(Cl)cc23)CC1` stands “inactive”; under `CCN(CC)c1nc2c(S(=O)(=O)c3ccccc3)nnn2c2ccccc12`, “inactive”; under `CCc1ccc(S(=O)(=O)c2nnn3c2nc(N2CCCC(C)C2)c2cc(Cl)ccc23)cc1` (stereo unspecified), “inactive”. For the molecule `CCc1ccc(S(=O)(=O)c2nnn3c2nc(NC(C)C)c2cc(Cl)ccc23)cc1`, the outcome was inactive. The value for `Cc1ccc(S(=O)(=O)c2nnn3c2nc(N2CCCC(C)C2)c2cc(Cl)ccc23)cc1C` (stereo unspecified) was “inactive”. With `NC(=O)C1CCN(c2nc3c(S(=O)(=O)c4ccc(Br)cc4)nnn3c3ccccc23)CC1`, the result was inactive.

As to `CCN(Cc1ccccc1)c1nc2c(S(=O)(=O)c3ccccc3)nnn2c2ccc(Cl)cc12`, the outcome was inactive. The value for `O=S(=O)(c1ccccc1)c1nnn2c1nc(Cl)c1ccccc12` was “inactive”. The value for `CN(Cc1ccccc1)c1nc2c(S(=O)(=O)c3ccccc3)nnn2c2ccccc12` was “inactive”; that for `O=C1CCCN1CCCNc1nc2c(S(=O)(=O)c3ccc(Br)cc3)nnn2c2ccccc12` was “inactive”. The value for `O=S(=O)(c1ccccc1)c1nnn2c1nc(N1CCN(c3ccccc3)CC1)c1cc(Cl)ccc12` was “inactive”; that for `CCc1ccc(S(=O)(=O)c2nnn3c2nc(NCCNC(C)=O)c2cc(Cl)ccc23)cc1` was “inactive”; that for `CC(=O)NCCNc1nc2c(S(=O)(=O)c3ccc(C)c(C)c3)nnn2c2ccc(Cl)cc12` was “inactive”. In the case of `CCc1ccc(S(=O)(=O)c2nnn3c2nc(N2CCN(c4ccccc4)CC2)c2cc(Cl)ccc23)cc1`, the result was inactive. The value for `Cc1ccc(S(=O)(=O)c2nnn3c2nc(N2CCC(C)CC2)c2cc(Cl)ccc23)cc1C` was “inactive”. Consider `Cc1ccc(CNc2nc3c(S(=O)(=O)c4ccc(C)c(C)c4)nnn3c3ccc(Cl)cc23)cc1`, for which the result was inactive. Under `O=S(=O)(c1ccccc1)c1nnn2c1nc(N1CCCC1)c1cc(Cl)ccc12` stands “inactive”; under `Cc1ccc(S(=O)(=O)c2nnn3c2nc(N2CCN(c4ccccc4F)CC2)c2cc(Cl)ccc23)cc1C`, “inactive”; under `CCOC(=O)C1CCCN(c2nc3c(S(=O)(=O)c4ccc(C)c(C)c4)nnn3c3ccc(Cl)cc23)C1` (stereo unspecified), “inactive”. Turning to `Cc1ccc(S(=O)(=O)c2nnn3c2nc(N2CCN(c4cccc(C)c4C)CC2)c2ccccc23)cc1C`, the outcome was inactive. The value for `Nc1nc2c(C(=O)N3CCOCC3)nnn2c2ccccc12` was “inactive”; that for `CCOC(=O)C1CCN(c2nc3c(S(=O)(=O)c4ccc(CC)cc4)nnn3c3ccc(Cl)cc23)CC1` was “inactive”. Under `Cc1ccc(C)c(S(=O)(=O)c2nnn3c2nc(Nc2ccc(C)c(C)c2)c2ccccc23)c1` stands “inactive”.
